A value given as a limit tells only on which side of the number the result lay.

Type in all cases: biochemical
In one assay the target is T1, aggrecanase-1 (Homo sapiens, UniProt O75173).
T1 sequence (O75173 213-837): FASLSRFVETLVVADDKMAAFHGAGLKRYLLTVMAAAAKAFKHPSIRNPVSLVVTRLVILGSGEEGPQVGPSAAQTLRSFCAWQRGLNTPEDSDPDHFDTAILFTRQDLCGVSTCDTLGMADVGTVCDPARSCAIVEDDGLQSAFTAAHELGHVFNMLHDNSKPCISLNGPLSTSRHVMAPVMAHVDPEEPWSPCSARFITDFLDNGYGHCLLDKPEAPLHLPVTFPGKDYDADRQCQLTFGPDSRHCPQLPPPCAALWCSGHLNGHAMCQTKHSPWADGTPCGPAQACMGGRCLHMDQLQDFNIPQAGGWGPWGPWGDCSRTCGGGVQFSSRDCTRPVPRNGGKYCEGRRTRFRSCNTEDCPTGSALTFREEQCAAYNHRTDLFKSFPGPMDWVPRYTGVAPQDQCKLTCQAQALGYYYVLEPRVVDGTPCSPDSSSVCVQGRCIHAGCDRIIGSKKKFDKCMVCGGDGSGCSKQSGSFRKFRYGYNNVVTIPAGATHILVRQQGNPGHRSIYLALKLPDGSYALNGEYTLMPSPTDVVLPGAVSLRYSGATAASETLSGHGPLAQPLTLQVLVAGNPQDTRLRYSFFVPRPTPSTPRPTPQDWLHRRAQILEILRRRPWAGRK
Briefly: Aggrecanase-1 inhibitory action (Particle Assay, GAG release from aggrecan-containing polyacrylamide particles). As to conditions: aggrecanase-1 inhibitory action; read-out: IC50 AG1 (Experimental Example 1). Put shortly:
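Enzyme and compound incubated with aggrecan-containing polyacrylamide particles in Tris-HCl buffer at 37° C for 15 h. Released GAG in supernatant measured with 1,9-dimethylmethylene blue at 595 nm against chondroitin sulfate standard; % inhibition from enzyme-free and inhibitor-free wells, reported as TC50 (μM).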

Another assay has as its target T2, MMP-1 (Homo sapiens, UniProt P03956).
T2 sequence (P03956 100-469): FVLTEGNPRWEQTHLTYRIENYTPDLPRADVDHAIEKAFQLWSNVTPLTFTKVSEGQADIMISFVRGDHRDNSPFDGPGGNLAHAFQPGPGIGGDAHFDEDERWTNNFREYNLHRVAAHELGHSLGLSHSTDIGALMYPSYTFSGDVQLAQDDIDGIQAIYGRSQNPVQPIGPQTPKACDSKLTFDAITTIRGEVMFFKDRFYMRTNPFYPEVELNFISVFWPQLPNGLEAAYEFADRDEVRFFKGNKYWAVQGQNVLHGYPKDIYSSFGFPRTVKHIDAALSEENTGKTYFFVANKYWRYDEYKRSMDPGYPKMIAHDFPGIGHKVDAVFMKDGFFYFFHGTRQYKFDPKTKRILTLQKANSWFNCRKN
Briefly: MMP-1 inhibitory action (Type I collagen Activity Measurement kit, FITC-labeled collagen type I). As to conditions: MMP-1 inhibitory action, FITC-labeled collagen type I, 37° C. for 3 hr; read-out: IC50 MMP1 (Experimental Example 2).

The next assay addresses T3, Recombinant Human MMP-13 (Homo sapiens, UniProt P45452).
T3 construct: purchased R&D systems 511-MM
Briefly: MMP-13 inhibitory activity (MMP-13 specific fluorescent substrate with quencher). As to conditions: Recombinant Human MMP-13, fluorescent substrate, 25° C. for 1 h; read-out: IC50 MMP13 (Experimental Example 3). Put shortly:
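Recombinant human MMP-13 with test compound, reaction started with quenched fluorogenic peptide 7-MCA-Pro-CHA-Gly-NVal-His-Ala-DPA in Tris-HCl buffer, 1 h at 25 °C, stopped with acetic acid. Fluorescence at Ex 325/Em 405 nm; % inhibition versus enzyme-free and inhibitor-free wells, reported as IC50 (μM).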

Take `O=C(O)C1(NS(=O)(=O)c2ccc(-c3ccc(Cl)cc3)s2)CC1c1cccc(CNc2cccnc2)c1` (stereo not drawn) [Example 2-32]: the IC50 at aggrecanase-1 was under 0.1 µM; on MMP-1, at least 10 µM; on Recombinant Human MMP-13, under 0.1 µM.
As for `O=C(O)[C@]1(NS(=O)(=O)c2ccc(C3=NOC(O)(C(F)(F)F)C3)s2)C[C@@H]1c1ccccc1` (stereo partly drawn) [Example 2-35], the results for the concentration for half-maximal inhibition (IC50) at aggrecanase-1, on MMP-1 and on Recombinant Human MMP-13 were under 1 µM, at least 10 µM and under 1 µM, respectively.
Consider `O=C(O)C1(NS(=O)(=O)c2ccc(-c3ccc(Cl)cc3)s2)CC1c1cccc(OCc2ccccc2)c1` (stereo not drawn) [Example 2-36], for which the IC50 at aggrecanase-1 is under 1 µM; on MMP-1, at least 10 µM; on Recombinant Human MMP-13, under 1 µM.
`CN(Cc1cccnc1)c1cccc(C2CC2(NS(=O)(=O)c2ccc(-c3ccc(Cl)cc3)s2)C(=O)O)c1` (stereo not drawn) [Example 2-37]: the IC50 was under 0.1 µM on aggrecanase-1, at least 10 µM at MMP-1 and under 0.1 µM at Recombinant Human MMP-13.
For `Cc1ccc(-c2ccc(S(=O)(=O)N[C@@]3(C(=O)O)C[C@@H]3c3ccccc3)s2)s1` [Example 2-39], the IC50 is under 1 µM at aggrecanase-1, at least 1 µM at MMP-1 and under 0.1 µM at Recombinant Human MMP-13.
In the case of `Cc1ccc(-c2ccccc2C2CC2(NS(=O)(=O)c2ccc(-c3ccc(Cl)cc3)s2)C(=O)O)cc1` (stereo not drawn) [Example 2-40], the IC50 was under 1 µM at aggrecanase-1, at least 10 µM at MMP-1 and under 1 µM on Recombinant Human MMP-13.
On to `O=C(O)C1(NS(=O)(=O)c2ccc(-c3ccc(Cl)cc3)s2)CC1C1CCCCC1` (stereo not drawn) [Example 2-41], for which the IC50 on aggrecanase-1 is under 1 µM; at MMP-1, at least 10 µM; at Recombinant Human MMP-13, under 1 µM.
As to `CC(C)(O)COc1cccc(C2CC2(NS(=O)(=O)c2ccc(-c3ccc(Cl)cc3)s2)C(=O)O)c1` (stereo not drawn) [Example 2-42], the IC50 on aggrecanase-1 was under 0.1 µM; at MMP-1, at least 10 µM; at Recombinant Human MMP-13 it was under 0.1 µM.
With `O=C(O)[C@]1(NS(=O)(=O)c2ccc(-c3cc(C(F)(F)F)on3)s2)C[C@@H]1c1ccccc1` [Example 2-43], the IC50 on aggrecanase-1 was under 0.1 µM; at MMP-1, under 1 µM; at Recombinant Human MMP-13, under 0.1 µM.
For `O=C(O)[C@]1(NS(=O)(=O)c2ccc(-c3noc(C(F)(F)F)n3)s2)C[C@@H]1c1ccccc1` [Example 2-44], the results for the IC50 on aggrecanase-1, at MMP-1 and at Recombinant Human MMP-13 were at least 1 µM, at least 10 µM and at least 1 µM, respectively.
Take `O=C(O)[C@]1(NS(=O)(=O)c2ccc(-c3noc(C(F)(F)C(F)(F)F)n3)s2)C[C@@H]1c1ccccc1` [Example 2-45]: the results for the IC50 at aggrecanase-1, on MMP-1 and on Recombinant Human MMP-13 were at least 1 µM, at least 10 µM and at least 1 µM, respectively.
Regarding `C=CC1CC1(NS(=O)(=O)c1ccc(-c2ccc(Cl)cc2)s1)C(=O)O` (stereo not drawn) [Example 2-46], the IC50 is at least 1 µM on aggrecanase-1, at least 10 µM on MMP-1 and at least 1 µM on Recombinant Human MMP-13.
With `O=C(O)C1(NS(=O)(=O)c2ccc(-c3ccc(Cl)cc3)s2)CC1Cn1nnc2ccccc2c1=O` (stereo not drawn) [Example 2-47], the IC50 at aggrecanase-1 is at least 1 µM; on MMP-1, at least 10 µM; on Recombinant Human MMP-13 it was under 1 µM.
Taken in the same sequence, the figures for `CCC1CC1(NS(=O)(=O)c1ccc(-c2ccc(Cl)cc2)s1)C(=O)O` (stereo not drawn) [Example 2-48] were under 1 µM, at least 10 µM and at least 1 µM.
Regarding `CN(C)CCOc1ccccc1C1CC1(NS(=O)(=O)c1ccc(-c2ccc(Cl)cc2)s1)C(=O)O` (stereo not drawn) [Example 2-49], the IC50 on aggrecanase-1 was at least 1 µM; on MMP-1 it was at least 10 µM; at Recombinant Human MMP-13, at least 10 µM.
Turning to `Cc1nc(-c2ccc(S(=O)(=O)N[C@@]3(C(=O)O)C[C@@H]3c3ccccc3)s2)cs1` [Example 2-50], the values for the IC50 on aggrecanase-1, on MMP-1 and at Recombinant Human MMP-13 were at least 1 µM, at least 10 µM and at least 1 µM, respectively.
On to `Cc1nc(-c2ccc(S(=O)(=O)N[C@@]3(C(=O)O)C[C@@H]3c3ccccc3)s2)no1` [Example 2-51], for which the IC50 is at least 1 µM at aggrecanase-1, at least 10 µM on MMP-1 and at least 1 µM on Recombinant Human MMP-13.
Consider `O=C(O)C1(NS(=O)(=O)c2ccc(-c3ccc(Cl)cc3)s2)CC1COc1ccccc1` (stereo not drawn) [Example 2-52], for which the IC50 at aggrecanase-1 was under 1 µM; at MMP-1, at least 10 µM; at Recombinant Human MMP-13, under 1 µM.
Turning to `CC(C)(C)NCCOc1ccccc1C1CC1(NS(=O)(=O)c1ccc(-c2ccc(Cl)cc2)s1)C(=O)O` (stereo not drawn) [Example 2-53], the IC50 was at least 1 µM at aggrecanase-1, at least 10 µM on MMP-1 and at least 1 µM at Recombinant Human MMP-13.
Consider `CC1(C)COC(c2ccc(S(=O)(=O)N[C@@]3(C(=O)O)C[C@@H]3c3ccccc3)s2)=N1` [Example 2-54], for which the IC50 on aggrecanase-1 was at least 1 µM; at MMP-1, at least 10 µM; on Recombinant Human MMP-13, at least 10 µM.
As to `Cc1ncc(-c2ccc(S(=O)(=O)N[C@@]3(C(=O)O)C[C@@H]3c3ccccc3)s2)s1` [Example 2-55], the IC50 is at least 1 µM on aggrecanase-1, at least 10 µM on MMP-1 and at least 10 µM at Recombinant Human MMP-13.
On to `O=C(O)C1(NS(=O)(=O)c2ccc(-c3ccc(Cl)cn3)s2)CC1c1cccc(Cn2cccn2)c1` (stereo not drawn) [Example 2-56], for which the IC50 is under 0.1 µM on aggrecanase-1, at least 10 µM at MMP-1 and under 0.1 µM on Recombinant Human MMP-13.
As for `COCc1cccc(C2CC2(NS(=O)(=O)c2ccc(-c3ccc(Cl)cn3)s2)C(=O)O)c1` (stereo not drawn) [Example 2-57], the IC50 at aggrecanase-1 was under 1 µM; at MMP-1, at least 10 µM; on Recombinant Human MMP-13, under 0.1 µM.
Take `O=C(O)C1(NS(=O)(=O)c2ccc(-c3ccc(Cl)cc3)s2)CC1C1CCC1` (stereo not drawn) [Example 2-58]: the figures for the IC50 on aggrecanase-1, at MMP-1 and at Recombinant Human MMP-13 were under 1 µM, at least 10 µM and under 1 µM, respectively.
Regarding `CC(C)C1CC1(NS(=O)(=O)c1ccc(-c2ccc(Cl)cc2)s1)C(=O)O` (stereo not drawn) [Example 2-59], the values for the IC50 on aggrecanase-1, on MMP-1 and at Recombinant Human MMP-13 were under 1 µM, at least 10 µM and under 1 µM, respectively.
As for `O=C(O)[C@]1(NS(=O)(=O)c2ccc(-c3nc(C(F)(F)F)cs3)s2)C[C@@H]1c1ccccc1` [Example 2-60], the IC50 on aggrecanase-1 was at least 10 µM; at MMP-1, at least 10 µM; on Recombinant Human MMP-13, at least 1 µM.
Take `O=C(O)C1(NS(=O)(=O)c2ccc(-c3ccc(Cl)cc3)s2)CC1C1CCCC1` (stereo not drawn) [Example 2-61]: the IC50 at aggrecanase-1 is under 1 µM; at MMP-1 it was at least 10 µM; on Recombinant Human MMP-13 it was under 1 µM.
On to `CC(C)(C)C1CC1(NS(=O)(=O)c1ccc(-c2ccc(Cl)cc2)s1)C(=O)O` (stereo not drawn) [Example 2-62], for which the IC50 on aggrecanase-1 is under 1 µM; at MMP-1, at least 10 µM; on Recombinant Human MMP-13, under 1 µM.
As to `O=C(O)C1(NS(=O)(=O)c2ccc(-c3ccc(Cl)cn3)s2)CC1c1ccccc1CO` (stereo not drawn) [Example 2-63], the IC50 is under 0.1 µM at aggrecanase-1, at least 1 µM at MMP-1 and under 0.1 µM on Recombinant Human MMP-13.
With `COc1ccc(N2CCN(S(=O)(=O)NC3(C(=O)O)CC3c3ccccc3)CC2)cc1` (stereo not drawn) [Example 2-64], the figures for the IC50 at aggrecanase-1, on MMP-1 and on Recombinant Human MMP-13 were at least 10 µM, at least 10 µM and at least 1 µM, respectively.
For `O=C(O)C1(NS(=O)(=O)c2ccc(-c3ccc(O)cc3)s2)CC1c1ccccc1` (stereo not drawn) [Example 2-65], the figures for the IC50 at aggrecanase-1, at MMP-1 and on Recombinant Human MMP-13 were under 1 µM, at least 10 µM and under 1 µM, respectively.
For `CC(=O)c1ccc(S(=O)(=O)NC2(C(=O)O)CC2c2ccccc2)s1` (stereo not drawn) [Example 2-66], the half-maximal inhibitory concentration (IC50) at aggrecanase-1 was at least 1 µM; at MMP-1 it was at least 10 µM; at Recombinant Human MMP-13 it was at least 1 µM.
`O=C(O)C1(NS(=O)(=O)N2CCN(c3ccc(F)cc3)CC2)CC1c1ccccc1` (stereo not drawn) [Example 2-67]: the IC50 at aggrecanase-1 was at least 10 µM; on MMP-1, at least 10 µM; at Recombinant Human MMP-13 it was under 1 µM.
Regarding `O=C(O)C1(NS(=O)(=O)N2CCN(c3ccc(C(F)(F)F)cn3)CC2)CC1c1ccccc1` (stereo not drawn) [Example 2-68], the IC50 was at least 1 µM at aggrecanase-1, at least 10 µM at MMP-1 and under 0.1 µM at Recombinant Human MMP-13.
Regarding `COCCN(C)C(=O)c1cccc(C2CC2(NS(=O)(=O)c2ccc(-c3ccc(Cl)cc3)s2)C(=O)O)c1` (stereo not drawn) [Example 2-69], the IC50 on aggrecanase-1 is under 0.1 µM; at MMP-1, at least 1 µM; on Recombinant Human MMP-13, under 0.1 µM.

These data come from patent US20080261994A1, “CYCLOPROPANE COMPOUNDS AND PHARMACEUTICAL USE THEREOF” (Japan Tobacco Inc., priority 2003, published 2008).
